# Reference: patent US9474755B2, “GLP-1 receptor modulators” (Receptos, Inc., priority 2014, dated 2016)
# Target: T1, GLP-1R (Homo sapiens, UniProt P43220)
# T1 construct: host or cells: CRE-bla CHO-K1
# Assay: EC20 GLP-1(9-36) PAM cAMP Assay: dose response of compound in the presence of fixed concentration of GLP-1(9-36)
# Assay type: cell-based
# Settings: GLP-1R CRE-bla CHO-K1 cells, in presence of fixed concentration of GLP-1(9-36), 30 min at 37° C.
# How it was run: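 GLP-1R CRE-bla CHO-K1 cells in HBSS/10 mM Hepes/0.1% BSA, pH 7.4, with IBMX were given a 12-point compound dose-response plus a fixed EC20 level of GLP-1(9-36) for 30 min at 37° C. cAMP was measured by luminescence, converted via a standard curve, and EC50 and Emax were fitted by non-linear regression.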
# T1 sequence (P43220 24-463): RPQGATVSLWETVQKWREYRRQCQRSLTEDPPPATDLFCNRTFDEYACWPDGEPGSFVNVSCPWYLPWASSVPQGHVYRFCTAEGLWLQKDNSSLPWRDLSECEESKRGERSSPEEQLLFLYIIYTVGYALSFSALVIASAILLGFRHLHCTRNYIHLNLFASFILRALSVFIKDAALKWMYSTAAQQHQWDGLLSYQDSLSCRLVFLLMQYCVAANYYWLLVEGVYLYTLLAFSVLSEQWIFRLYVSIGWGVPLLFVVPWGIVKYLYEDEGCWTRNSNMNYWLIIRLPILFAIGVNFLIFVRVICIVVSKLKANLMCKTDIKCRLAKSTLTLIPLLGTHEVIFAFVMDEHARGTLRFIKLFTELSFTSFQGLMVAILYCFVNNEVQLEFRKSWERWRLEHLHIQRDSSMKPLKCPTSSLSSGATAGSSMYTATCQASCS
# T1 sequence (P01275 100-127 partner limits assumed): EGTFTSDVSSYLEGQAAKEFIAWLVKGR
row,SMILES,EC50 [nM]
1,CC[C@H]1CC[C@H](C2CC=C(c3cnc(-c4ccc(C[C@H](NC(=O)c5ccc(C(C)(C)C)s5)C(=O)N[C@H](C)C(=O)O)cc4)nc3)CC2)CC1 (stereo partly drawn) [Compound 106],< 500
2,CC[C@H]1CC[C@H](C2CC=C(c3cnc(-c4ccc(C[C@H](NC(=O)c5ccc(C(C)(C)C)s5)C(=O)NCCC(=O)O)cc4)nc3)CC2)CC1 (stereo partly drawn) [Compound 107],< 500
3,CC[C@H]1CC[C@H](C2CC=C(c3cnc(-c4ccc(C[C@H](NC(=O)c5ccc(C(C)(C)C)s5)C(=O)NCC5CCNC5)cc4)nc3)CC2)CC1 (stereo partly drawn) [Compound 108],500 to 2500
4,"CC[C@H]1CC[C@H](C2CC=C(c3cnc(-c4ccc(C[C@H](NC(=O)c5ccc(C(C)(C)C)s5)C(=O)N5CC[C@H](C(=O)O)C5)cc4)nc3)CC2)CC1 (stereo partly drawn) [Compound 110, (S)-1-((S)-2-(5-(tert-butyl)thiophene-2-carboxamido)-3-(4-(5-((1RS,1′r,4′RS)-4′-ethyl-[1,1′-bi(cyclohexan)]-3-en-4-yl)pyrimidin-2-yl)phenyl)propanoyl)pyrrolidine-3-carboxylic acid]",< 500
5,CC(C)(C)c1ccc(C(=O)N[C@@H](Cc2ccc(-c3ncc(C4=CCC([C@H]5CC[C@H](C)CC5)CC4)cn3)cc2)C(=O)N2CCC[C@H]2C(=O)O)s1 (stereo partly drawn) [Compound 111],< 500
6,C[C@@H](NC(=O)[C@H](Cc1ccc(-c2ncc(C3=CCC([C@H]4CC[C@H](C)CC4)CC3)cn2)cc1)NC(=O)c1ccc(C(C)(C)C)s1)C(=O)O (stereo partly drawn) [Compound 112],< 500
7,CC(C)(C)c1ccc(C(=O)N[C@@H](Cc2ccc(-c3ncc(C4=CCC([C@H]5CC[C@H](C)CC5)CC4)cn3)cc2)C(=O)NCCC(=O)O)s1 (stereo partly drawn) [Compound 113],< 500
8,CC(C)(C)c1ccc(C(=O)N[C@@H](Cc2ccc(-c3ncc(C4=CCC([C@H]5CC[C@H](C)CC5)CC4)cn3)cc2)C(=O)NCC2CCNC2)s1 (stereo partly drawn) [Compound 114],500 to 2500
9,CC(C)(C)c1ccc(C(=O)N[C@@H](Cc2ccc(-c3ncc(C4=CCC([C@H]5CC[C@H](C)CC5)CC4)cn3)cc2)C(=O)NS(C)(=O)=O)s1 (stereo partly drawn) [Compound 115],< 500
10,CC(C)(C)c1ccc(C(=O)N[C@@H](Cc2ccc(-c3ncc(C4=CCC([C@H]5CC[C@H](C)CC5)CC4)cn3)cc2)C(=O)N2CC[C@H](C(=O)O)C2)s1 (stereo partly drawn) [Compound 116],< 500
11,CCC[C@H]1CC[C@H](C2CC=C(c3cnc(-c4ccc(C[C@H](NC(=O)c5ccc(C6CC6)s5)C(=O)N5CC(C(=O)O)C5)cc4)nc3)CC2)CC1 (stereo partly drawn) [Compound 117],< 500
12,CCC[C@H]1CC[C@H](C2CC=C(c3cnc(-c4ccc(C[C@H](NC(=O)c5ccc(CC(C)C)s5)C(=O)N5CC(C(=O)O)C5)cc4)nc3)CC2)CC1 (stereo partly drawn) [Compound 118],< 500
13,CC[C@H]1CC[C@H](C2CC=C(c3cnc(-c4ccc(C[C@H](NC(=O)c5ccc(C(C)(C)C)s5)C(=O)O)cc4)nc3)CC2)CC1 (stereo partly drawn) [Compound 119],500 to 2500
14,CC(C)(C)c1ccc(C(=O)N[C@@H](Cc2ccc(-c3ncc(C4=CCC(C5CCCCC5)CC4)cn3)cc2)C(=O)O)s1 (stereo partly drawn) [Compound 120],500 to 2500
15,CCCc1ccc(C2CC=C(c3cnc(-c4ccc(C[C@H](NC(=O)c5ccc(C(C)(C)C)s5)C(=O)O)cc4)nc3)CC2)cc1 (stereo partly drawn) [Compound 121],< 500
16,CC1(C)CCC(C2CC=C(c3cnc(-c4ccc(C[C@H](NC(=O)c5ccc(C(C)(C)C)s5)C(=O)O)cc4)nc3)CC2)CC1 (stereo partly drawn) [Compound 122],500 to 2500
17,CCCC1CCC(C2CC=C(c3cnc(-c4ccc(C[C@@H](NC(=O)c5ccc(C(C)(C)C)s5)C(=O)N5CC(C(=O)O)C5)cc4)nc3)CC2)CC1 (stereo partly drawn) [Compound 124],500 to 2500
18,CC[C@H]1CC[C@H](C2CCC(c3cnc(-c4ccc(C[C@H](NC(=O)c5ccc(C(C)(C)C)s5)C(=O)N5CC(C(=O)O)C5)cc4)nc3)CC2)CC1 (stereo partly drawn) [Compound 125],500 to 2500
